Test systems include DU-145 prostate; HCT-116 colon; MALME-3M melanoma; MDA-MB-435; RPMI-8226 leukemia; SF-539 CNS; SK-MEL-2 melanoma; SNB-75 CNS; T-47D breast; UACC-62 melanoma.
Common to all, as to test: NCI anticancer screen, dose series, 48 h

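Exposure lasted 48 hours, with cells grown in 96-well plates and compounds tested at five concentrations. GI50 marks 50% less growth. TGI marks complete inhibition of growth.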

Take `CCOC(=O)c1cc2c(cc1Cl)SC(N(c1ccc(OC)cc1)S(=O)(=O)c1ccc(Cl)cc1)=NS2(=O)=O`: the GI50 in the test on DU-145 prostate is 24 µM; in the test with HCT-116 colon it was 35.8 µM; with MALME-3M melanoma it was 28.1 µM; in the test on MDA-MB-435 it was 22.1 µM; with RPMI-8226 leukemia it was 31.3 µM; with SF-539 CNS it was 15.1 µM. Also, the GI50 is 24.7 µM with SK-MEL-2 melanoma, 23.3 µM in the test with SNB-75 CNS, 12.1 µM in the test on T-47D breast and 34.6 µM in the test on UACC-62 melanoma. The TGI in the test on DU-145 prostate is 79.9 µM; in the test with HCT-116 colon, > 100 µM; with MALME-3M melanoma, > 100 µM; in the test on MDA-MB-435, 57 µM; in the test on RPMI-8226 leukemia, > 100 µM; in the test on SF-539 CNS, 31.2 µM. The TGI was > 100 µM with SK-MEL-2 melanoma, 90.4 µM in the test on SNB-75 CNS, 36.1 µM in the test on T-47D breast and > 100 µM with UACC-62 melanoma.
Turning to `COc1cc(C(=O)N2CCN(c3ncnc4ccccc34)CC2)c(N)cc1OCc1ccccc1`, the GI50 in the test on DU-145 prostate is 7.21 µM; with HCT-116 colon, 10.7 µM; with MALME-3M melanoma, 13.7 µM; with MDA-MB-435, 13.1 µM; with RPMI-8226 leukemia it was 14 µM; with SF-539 CNS, 18.6 µM. For the same compound, the GI50 was 16.5 µM in the test with SK-MEL-2 melanoma, 7.63 µM with SNB-75 CNS, 7.08 µM with T-47D breast and 12 µM in the test with UACC-62 melanoma. Also, the TGI with DU-145 prostate is 19.9 µM; in the test with HCT-116 colon it was 22.6 µM; in the test with MALME-3M melanoma it was 30.4 µM; in the test on MDA-MB-435 it was 27.4 µM; in the test on RPMI-8226 leukemia it was 47.8 µM; in the test on SF-539 CNS, 33.2 µM. In addition, the TGI in the test on SK-MEL-2 melanoma stood at 41.3 µM; in the test on SNB-75 CNS, 20.8 µM; in the test with T-47D breast, 40.9 µM; with UACC-62 melanoma it was 24.3 µM.
Regarding `O=c1[nH]c(=S)[nH]c2c1CN(CCCN1CCOCC1)CN2`, the TGI was > 100 µM with DU-145 prostate; > 100 µM in the test on HCT-116 colon; 42.3 µM in the test on MALME-3M melanoma; 69.6 µM with MDA-MB-435; 75.6 µM with RPMI-8226 leukemia; 58.2 µM in the test with SF-539 CNS. In addition, the TGI was 39.8 µM with SK-MEL-2 melanoma, > 100 µM with T-47D breast and 37.3 µM in the test on UACC-62 melanoma.
Turning to `Oc1ccc(-c2nc3ccccc3s2)cc1CN(Cc1ccccn1)Cc1ccccn1`, the GI50 is 1.26 µM in the test with DU-145 prostate; 0.59 µM in the test on HCT-116 colon; 1.8 µM in the test on MALME-3M melanoma; 2.24 µM in the test with MDA-MB-435; 2.08 µM in the test on RPMI-8226 leukemia; 1.42 µM with SF-539 CNS. Besides, the GI50 in the test on SK-MEL-2 melanoma is 2.5 µM; with SNB-75 CNS, 1.22 µM; in the test on T-47D breast, 3.79 µM; with UACC-62 melanoma, 1.24 µM. The TGI with DU-145 prostate was determined as 20.8 µM; in the test on HCT-116 colon, 14 µM; with MALME-3M melanoma, 7.77 µM; in the test on MDA-MB-435, 11.3 µM; in the test on RPMI-8226 leukemia it was 16.6 µM; in the test with SF-539 CNS, 6.75 µM. For the same compound, the TGI in the test with SK-MEL-2 melanoma is 9.69 µM; in the test with SNB-75 CNS, 15.3 µM; in the test on T-47D breast it was 89.9 µM; in the test on UACC-62 melanoma, 6.66 µM.
For the compound `O=C1C=CC(=Nc2cc(Br)c(O)c(Br)c2)C=C1`, the GI50 in the test with DU-145 prostate is 30 µM; with HCT-116 colon, 11.5 µM; in the test with MALME-3M melanoma, 18.4 µM; in the test with MDA-MB-435, 18.9 µM; in the test with RPMI-8226 leukemia, 11.9 µM; in the test on SF-539 CNS, 21.5 µM. In addition, the GI50 was 23 µM in the test with SK-MEL-2 melanoma, 27.5 µM in the test with SNB-75 CNS, 12.4 µM with T-47D breast and 25.6 µM with UACC-62 melanoma. Moreover, the TGI in the test on DU-145 prostate was > 100 µM; in the test with HCT-116 colon it was 26.3 µM; with MALME-3M melanoma it was > 100 µM; in the test with MDA-MB-435 it was > 100 µM; in the test on RPMI-8226 leukemia, > 100 µM; in the test with SF-539 CNS, 64.1 µM. For the same compound, the TGI in the test on SK-MEL-2 melanoma is 75.2 µM; with SNB-75 CNS, > 100 µM; in the test with T-47D breast, 41.4 µM; in the test on UACC-62 melanoma it was 93.2 µM.
As to `O=C(Nc1ccncc1)C(=O)c1cn(S(=O)(=O)c2ccc(Cl)cc2)c2ccccc12`, the GI50 with DU-145 prostate was 3.43 µM; in the test on HCT-116 colon it was 0.415 µM; with MALME-3M melanoma, 0.894 µM; in the test with MDA-MB-435 it was 0.106 µM; in the test on RPMI-8226 leukemia, 1.44 µM; in the test with SF-539 CNS, 0.696 µM. Further, the GI50 in the test with SK-MEL-2 melanoma is 3.24 µM; in the test with SNB-75 CNS it was 1.23 µM; in the test with T-47D breast, 0.905 µM; in the test with UACC-62 melanoma, 0.503 µM. In addition, the TGI in the test on DU-145 prostate was > 49.7 µM; in the test with HCT-116 colon, > 48.9 µM; in the test with MALME-3M melanoma, > 100 µM; with MDA-MB-435, 0.521 µM; in the test with RPMI-8226 leukemia, > 100 µM; in the test on SF-539 CNS, 12.5 µM. The TGI with SK-MEL-2 melanoma is 27.3 µM; with SNB-75 CNS, 10.9 µM; in the test with T-47D breast it was > 100 µM; in the test on UACC-62 melanoma it was 14.2 µM.
`CC1CCCC(C(O)CC2CC(=O)NC(=O)C2)C1O` (configuration not stated): the TGI in the test with DU-145 prostate, in the test with HCT-116 colon, in the test with MALME-3M melanoma, with MDA-MB-435, in the test with RPMI-8226 leukemia and with SF-539 CNS was > 100 µM in each case. Moreover, the TGI in the test with SK-MEL-2 melanoma, in the test with SNB-75 CNS, in the test on T-47D breast and in the test with UACC-62 melanoma was > 100 µM in each case.
Turning to `NCCOCCOCCNc1nc(-c2ccccc2)nc(N2CCN(c3ccccn3)CC2)n1`, the GI50 was 15.2 µM in the test on DU-145 prostate; 10 µM in the test with HCT-116 colon; 11.3 µM in the test on MALME-3M melanoma; 11.4 µM in the test with MDA-MB-435; 13.5 µM in the test with RPMI-8226 leukemia; 17.6 µM with SF-539 CNS. Moreover, the figures for the GI50 with SNB-75 CNS, in the test on T-47D breast and with UACC-62 melanoma were 14.3 µM, 11.7 µM and 6.76 µM, respectively. In addition, the TGI stood at 28.7 µM in the test with DU-145 prostate; 22.6 µM with HCT-116 colon; 26.2 µM with MALME-3M melanoma; 24.5 µM with MDA-MB-435; 34.2 µM in the test with RPMI-8226 leukemia; 33.1 µM in the test with SF-539 CNS. The TGI in the test on SNB-75 CNS was 30.2 µM; in the test with T-47D breast, 30.3 µM; in the test with UACC-62 melanoma, 19.4 µM.

Values taken from PubChem BioAssay (NCI).
